Test results published in patent US11939345B2, “Physiologically stable fluorophore and performing fluorescence probing” (Government of the United States of America, as represented …, priority 2019, dated 2024).

How the values were obtained:
[1] = pH stability of fluorescence intensity; assay type: physicochemical; conditions: Example 2; FIG. 22B
Procedure: With regard to assessment of photoluminescence properties of labeled CNF, photoluminescence excitation (PLE) spectroscopy maps and line scans were obtained with spectrofluorometer and corrected for the instrument's source spectral distribution and detector spectral response. Excitation wavelengths were scanned in 5 nm increments using a 450 W xenon lamp through a 2 nm slit. Emitted light was collected at 90° and measured using a liquid N2-cooled InGaAs detector over 2 nm increments through a 2 nm slit. The fluorescence emission spectra of mDTEB-CNF and mDTEB-seCNF were created using an excitation wavelength (λEx) of 514 nm with emission wavelengths from 530 nm to 650 nm. […] The pH stability of mDTEB-CNF and mDTEB-seCNF were evaluated by measuring fluorescence intensity using a Nanolog-3 spectrofluorometer. Buffered solutions containing 0.5 mg/mL labeled CNF in the range of pH 2 to 10 were equilibrated to 37° C., and the fluorescence intensity was measured at λEm 540 nm. […] The photoluminescence spectra of autoclaved washed fibers, the collected supernatants, and the controls were recorded using the spectrofluorometer as described above. The concentration-dependence of the labeled CNF fluorescence was assessed by measuring the fluorescence intensity of labeled CNF diluted to concentrations between 2 μg/mL and 2 mg/mL using PBS buffer or deionized water. […]

[2] = Photoluminescence excitation/emission and absorption spectra; assay type: physicochemical
Procedure: With regard to assessment of photoluminescence properties of labeled CNF, photoluminescence excitation (PLE) spectroscopy maps and line scans were obtained with spectrofluorometer and corrected for the instrument's source spectral distribution and detector spectral response. Excitation wavelengths were scanned in 5 nm increments using a 450 W xenon lamp through a 2 nm slit. Emitted light was collected at 90° and measured using a liquid N2-cooled InGaAs detector over 2 nm increments through a 2 nm slit. The fluorescence emission spectra of mDTEB-CNF and mDTEB-seCNF were created using an excitation wavelength (λEx) of 514 nm with emission wavelengths from 530 nm to 650 nm. An excitation plot was created with an emission wavelength (λEm) of 540 nm with excitation wavelengths from 400 nm to 530 nm. The UV-Vis absorption spectra were collected with a UV-Vis-NIR spectrophotometer. The pH stability of mDTEB-CNF and mDTEB-seCNF were evaluated by measuring fluorescence intensity using a Nanolog-3 spectrofluorometer. Buffered solutions containing 0.5 mg/mL labeled CNF in the range of pH 2 to 10 were equilibrated to 37° C., and the fluorescence intensity was measured at λEm 540 nm. […] The photoluminescence spectra of autoclaved washed fibers, the collected supernatants, and the controls were recorded using the spectrofluorometer as described above. The concentration-dependence of the labeled CNF fluorescence was assessed by measuring the fluorescence intensity of labeled CNF diluted to concentrations between 2 μg/mL and 2 mg/mL using PBS buffer or deionized water. Fluorescence intensity was recorded on a multimode microplate reader equipped with monochromator optics at λEx 514 nm and λEm 540 nm. […] Each suspension was measured in triplicate using 200 μL samples. […] For fluorescence images, dilute labeled CNF suspensions were deposited onto an ultraviolet ozone (UVO)-treated glass slides and dried at room temperature. […]
Photoluminescence properties (excitation and emission spectra) of the mDTEB dye and mDTEB-seCNF were recorded using fluorescence spectroscopy. […]

## CCC1=C(C)C2=C(c3ccc(Oc4nc(Cl)nc(Cl)n4)cc3)c3c(C)c(CC)c(C)n3[B-](F)(F)[N+]2=C1C [mDTEB, 10-(4-((4,6-dichloro-1,3,5-triazin-2-yl)oxy)phenyl)-2,8-diethyl-5,5-difluoro-1,3,7,9-tetramethyl-5H-414,514-dipyrrolo[1,2-c:2′,1′-f] [1,3,2]diazaborinine]
[1]
  emission intensity as a function of pH: stable to a wide range of pH values
[2]
  Stokes shift: 36 nm
[2]; FIG. 22A, in water
  absorbance peak: 514 nm
[2]; fluorescence spectroscopy
  maximum emission intensity wavelength / emission peak: 540 nm
